Test results: patent publication US8586739B2, “Heterocyclic compounds and their uses” (Amgen Inc., priority 2007, dated 2013)

What was measured:
[1] = biological target: T1, PI3Kδ (Homo sapiens, UniProt O00329); assay: In vitro enzyme assay of recombinant PI3K (residual ATP bioluminescence); assay type: biochemical
T1 construct: Full length p110 subunits of PI3k α, β and δ, N-terminally labeled with polyHis tag; polyHis (N); made in house; host or cells: Sf9 insect cells (baculovirus)
Protocol: Recombinant Expression of PI3Ks
Full length p110 subunits of PI3k α, β and δ, N-terminally labeled with polyHis tag, were coexpressed with p85 with Baculo virus expression vectors in sf9 insect cells. P110/p85 heterodimers were purified by sequential Ni-NTA, Q-HP, Superdex-100 chromatography. Purified α, β and δ isozymes were stored at −20° C. in 20 mM Tris, pH 8, 0.2M NaCl, 50% glycerol, 5 mM DTT, 2 mM Na cholate. Truncated PI3Kγ, residues 114-1102, N-terminally labeled with polyHis tag, was expessed with Baculo virus in Hi5 insect cells. The γ isozyme was purified by sequential Ni-NTA, Superdex-200, Q-HP chromatography. The γ isozyme was stored frozen at −80° C. in NaH2PO4, pH 8, 0.2M NaCl, 1% ethylene glycol, 2 mM β-mercaptoethanol.
Assays were performed in 25 μL with the above final concentrations of components in white polyproplyene plates (Costar 3355). Phospatidyl inositol phosphoacceptor, PtdIns(4,5)P2 P4508, was from Echelon Biosciences. The ATPase activity of the alpha and gamma isozymes was not greatly stimulated by PtdIns(4,5)P2 under these conditions and was therefore omitted from the assay of these isozymes. Test compounds were dissolved in dimethyl sulfoxide and diluted with three-fold serial dilutions. The compound in DMSO (1 μL) was added per test well, and the inhibition relative to reactions containing no compound, with and without enzyme was determined. After assay incubation at room temperature, the reaction was stopped and residual ATP determined by addition of an equal volume of a commercial ATP bioluminescence kit (Perkin Elmer EasyLite) according to the manufacturer's instructions, and detected using a AnalystGT luminometer.

[2] = tested on: human B cells; assay: Human B cells proliferation stimulated by anti-IgM (3H thymidine); assay type: cell-based; details: 72 h, purified human B cells, anti-Human IgM + CD40L-LZ
How it was run: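 Human B cells were magnetically purified from PBMCs and plated at 50000/well in DMEM+5% FCS. Medium containing 250 ng/mL CD40L-LZ and 2 μg/mL anti-IgM was combined with PI3K inhibitor medium, and cells were incubated 72 h at 37° C. Proliferation was read by 0.5-1 uCi/well ^3H thymidine pulse (~18 h).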

T1 sequence (O00329 whole entry): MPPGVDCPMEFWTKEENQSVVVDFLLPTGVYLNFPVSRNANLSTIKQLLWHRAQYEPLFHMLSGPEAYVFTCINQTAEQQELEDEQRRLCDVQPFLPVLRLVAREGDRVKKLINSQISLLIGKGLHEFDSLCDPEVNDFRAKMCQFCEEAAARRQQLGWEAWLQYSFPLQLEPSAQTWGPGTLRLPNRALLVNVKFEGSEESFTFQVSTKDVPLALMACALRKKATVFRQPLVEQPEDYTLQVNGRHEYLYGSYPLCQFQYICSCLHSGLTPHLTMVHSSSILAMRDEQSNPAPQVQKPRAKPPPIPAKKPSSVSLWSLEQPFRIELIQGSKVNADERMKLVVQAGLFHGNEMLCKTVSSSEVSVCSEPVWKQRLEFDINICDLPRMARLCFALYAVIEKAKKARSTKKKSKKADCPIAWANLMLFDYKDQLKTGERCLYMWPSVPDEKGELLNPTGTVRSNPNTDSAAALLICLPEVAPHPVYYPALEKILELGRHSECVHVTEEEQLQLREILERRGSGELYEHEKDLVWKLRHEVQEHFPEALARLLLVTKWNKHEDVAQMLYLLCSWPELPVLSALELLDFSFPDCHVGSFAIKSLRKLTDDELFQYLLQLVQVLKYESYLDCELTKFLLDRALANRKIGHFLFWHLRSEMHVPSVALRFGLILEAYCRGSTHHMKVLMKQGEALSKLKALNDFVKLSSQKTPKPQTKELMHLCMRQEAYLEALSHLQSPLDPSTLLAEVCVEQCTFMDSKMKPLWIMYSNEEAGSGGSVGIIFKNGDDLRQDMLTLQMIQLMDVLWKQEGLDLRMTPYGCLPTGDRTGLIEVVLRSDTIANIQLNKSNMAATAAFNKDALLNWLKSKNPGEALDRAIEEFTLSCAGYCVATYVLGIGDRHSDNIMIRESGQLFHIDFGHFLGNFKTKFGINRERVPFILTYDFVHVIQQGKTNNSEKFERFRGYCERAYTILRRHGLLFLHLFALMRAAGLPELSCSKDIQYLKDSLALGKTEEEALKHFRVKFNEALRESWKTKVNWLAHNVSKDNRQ
T1 sequence (P27986 whole entry partner): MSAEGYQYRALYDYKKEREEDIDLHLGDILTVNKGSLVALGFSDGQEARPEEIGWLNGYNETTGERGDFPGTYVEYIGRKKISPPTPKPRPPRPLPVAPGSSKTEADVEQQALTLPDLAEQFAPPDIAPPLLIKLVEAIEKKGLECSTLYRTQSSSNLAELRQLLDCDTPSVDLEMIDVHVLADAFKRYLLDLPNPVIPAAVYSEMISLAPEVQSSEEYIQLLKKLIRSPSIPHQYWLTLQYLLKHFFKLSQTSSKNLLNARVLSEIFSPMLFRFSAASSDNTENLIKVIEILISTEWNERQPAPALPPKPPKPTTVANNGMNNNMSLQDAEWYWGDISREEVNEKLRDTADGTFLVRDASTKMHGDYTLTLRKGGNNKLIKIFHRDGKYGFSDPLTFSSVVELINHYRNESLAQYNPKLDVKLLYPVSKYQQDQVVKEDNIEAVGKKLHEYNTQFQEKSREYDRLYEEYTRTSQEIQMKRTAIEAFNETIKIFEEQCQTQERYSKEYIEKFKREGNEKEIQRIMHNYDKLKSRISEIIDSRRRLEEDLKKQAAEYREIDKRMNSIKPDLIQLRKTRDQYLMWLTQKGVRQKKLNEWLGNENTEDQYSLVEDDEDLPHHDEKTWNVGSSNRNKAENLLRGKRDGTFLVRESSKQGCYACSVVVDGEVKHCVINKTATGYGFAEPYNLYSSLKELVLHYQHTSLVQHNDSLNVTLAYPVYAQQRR

Compound | IC50 ([2]; Homo sapiens, B-cell) | further results
Cc1ccccc1-c1nc2c(C)cccc2cc1CNc1ncnc2[nH]cnc12 [Example 1, N-((8-Methyl-2-o-tolylquinolin-3-yl)methyl)-9H-purin-6-amine] | – | IC50 [1]: 84 nM
Clc1ccccc1-c1nc2c(Cl)cccc2cc1CNc1ncnc2[nH]cnc12 [Example 2, N-((8-Chloro-2-(2-chlorophenyl)quinolin-3-yl)-methyl)-9H-purin-6-amine] | – | IC50 [1]: 68 nM
Clc1nc(NCc2cc3cccc(Cl)c3nc2-c2ccccc2Cl)c2nc[nH]c2n1 [Example 3, 2-Chloro-N-((8-chloro-2-(2-chlorophenyl)quinolin-3-yl)methyl)-9H-purin-6-amine] | – | IC50 [1]: 615 nM
COc1nc(NCc2cc3cccc(Cl)c3nc2-c2ccccc2Cl)c2cc[nH]c2n1 [Example 4, N-((8-Chloro-2-(2-chlorophenyl)quinolin-3-yl)methyl)-2-meth-oxy-7H-pyrrolo[2,3-d]pyrimidin-4-amine] | – | IC50 [1]: 5420 nM
Cc1ccccc1-c1nc2c(C)cccc2cc1C(C)Oc1ncnc2[nH]cnc12 (stereo not drawn) [Example 5, 3-(1-(9H-Purin-6-yloxy)ethyl)-8-methyl-2-o-tolylquinoline] | – | IC50 [1]: 12 nM
Cc1cccc2cc(C(C)Nc3ncnc4[nH]cnc34)c(-c3ccccc3Cl)nc12 (stereo not drawn) [Example 6, N-(1-(2-(2-Chlorophenyl)-8-methylquinolin-3-yl)ethyl)-9H-purin-6-amine] | – | IC50 [1]: 31 nM
COc1ccccc1-c1nc2c(C)cccc2cc1COc1ncnc2[nH]cnc12 [Example 7, 3-((9H-Purin-6-yloxy)methyl)-2-(2-methoxyphenyl)-8-methylquinoline] | – | IC50 [1]: 38 nM
Cc1cccc2cc(COc3ncnc4[nH]cnc34)c(-c3ccccc3-c3ccccc3)nc12 [Example 8, 3-((9H-Purin-6-yloxy)methyl)-2-(biphenyl)-8-methylquinoline] | – | IC50 [1]: 22 nM
C=CCC(Oc1ncnc2[nH]ccc12)c1cc2cccc(C)c2nc1-c1ccccc1Cl (stereo not drawn) [Example 9, 3-(1-(7H-Pyrrolo[2,3-d]pyrimidin-4-yloxy)but-3-enyl)-2-(2-chlorophenyl)-8-methylquinoline] | – | IC50 [1]: 28 nM
Cc1cccc2cc(COc3ncnc4[nH]cnc34)c(-c3ccccc3Cl)nc12 [Example 10, 3-((9H-Purin-6-yloxy)methyl)-2-(2-chlorophenyl)-8-methylquinoline] | – | IC50 [1]: 25 nM
Cc1ccccc1-c1nc2c(C)cccc2cc1CSc1ncnc2[nH]cnc12 [Example 12, 3-((9H-Purin-6-ylthio)methyl)-8-methyl-2-o-tolylquinoline] | – | IC50 [1]: 889 nM
Clc1ccccc1-c1nc2c(Cl)cccc2cc1CNc1ccnc2[nH]cnc12 [N-((8-chloro-2-(2-chlorophenyl)-3-quinolinyl)methyl)-3H-imidazo[4,5-b]pyridin-7-amine] | 361 nM | –
Cc1ncccc1-c1nc2c(Cl)cccc2cc1CNc1ncnc2[nH]cnc12 [N-((8-chloro-2-(2-methyl-3-pyridinyl)-3-quinolinyl)methyl)-9H-purin-6-amine] | 13.4 nM | –
Clc1cccc2cc(CNc3ncnc4[nH]cnc34)c(-c3ccccn3)nc12 [N-((8-chloro-2-(2-pyridinyl)-3-quinolinyl)methyl)-9H-purin-6-amine] | 34.1 nM | –
Clc1cccc2cc(CNc3ncnc4[nH]cnc34)c(-c3cccs3)nc12 [N-((8-chloro-2-(2-thiophenyl)-3-quinolinyl)methyl)-9H-purin-6-amine] | 104 nM | –
Fc1cc(F)cc(-c2nc3c(Cl)cccc3cc2CNc2ncnc3[nH]cnc23)c1 [N-((8-chloro-2-(3,5-difluorophenyl)-3-quinolinyl)methyl)-9H-purin-6-amine] | 56 nM | –
CC(C)c1cccc(-c2nc3c(Cl)cccc3cc2CNc2ncnc3[nH]cnc23)c1 [N-((8-chloro-2-(3-(1-methylethyl)phenyl)-3-quinolinyl)methyl)-9H-purin-6-amine] | 305 nM | –
Clc1cccc(-c2nc3c(Cl)cccc3cc2CNc2ncnc3[nH]cnc23)c1 [N-((8-chloro-2-(3-chlorophenyl)-3-quinolinyl)methyl)-9H-purin-6-amine] | 411 nM | –
FC1CCCN(c2nc3c(Cl)cccc3cc2CNc2ncnc3[nH]cnc23)C1 (stereo not drawn) [N-((8-chloro-2-(3-fluoro-1-piperidinyl)-3-quinolinyl)methyl)-9H-purin-6-amine] | 95.5 nM | –
Fc1cccc(-c2nc3c(Cl)cccc3cc2CNc2ncnc3[nH]cnc23)c1 [N-((8-chloro-2-(3-fluorophenyl)-3-quinolinyl)methyl)-9H-purin-6-amine] | 27.5 nM | –

Compound | IC50 ([2]; Homo sapiens, B-cell) | further results
Cc1cccnc1-c1nc2c(Cl)cccc2cc1CNc1ncnc2[nH]cnc12 [N-((8-chloro-2-(3-methyl-2-pyridinyl)-3-quinolinyOmethyl)-9H-purin-6-amine] | – | IC50 [2]: 79 nM
CC(C)c1ccncc1-c1nc2c(Cl)cccc2cc1CNc1ncnc2[nH]cnc12 [N-((8-chloro-2-(4-(1-methylethyl)-3-pyridinyl)-3-quinolinyl)methyl)-9H-purin-6-amine] | 25.8 nM | –
CC(C)c1ncncc1-c1nc2c(Cl)cccc2cc1CNc1ncnc2[nH]cnc12 [N-((8-chloro-2-(4-(1-methylethyl)-5-pyrimidinyl)-3-quinolinyl)methyl)-9H-purin-6-amine] | 78.9 nM | –
FC(F)(F)c1ccncc1-c1nc2c(Cl)cccc2cc1CNc1ncnc2[nH]cnc12 [N-((8-chloro-2-(4-(trifluoromethyl)-3-pyridinyl)-3-quinolinyl)methyl)-9H-purin-6-amine] | 69.5 nM | –
Fc1ccc(-c2nc3c(Cl)cccc3cc2CNc2ncnc3nc[nH]c23)cc1 [N-((8-chloro-2-(4-fluorophenyl)-3-quinolinyl)methyl)-7H-purin-6-amine] | 265 nM | –
CC(Oc1ccc(F)cc1-c1nc2c(Cl)cccc2cc1CNc1ncnc2[nH]cnc12)c1ccccc1 (stereo not drawn) [N-((8-chloro-2-(5-fluoro-2-(1-phenylethoxy)phenyl)-3-quinolinyl)methyl)-9H-purin-6-amine] | 565 nM | –
Fc1ccc(OCc2cccnc2)c(-c2nc3c(Cl)cccc3cc2CNc2ncnc3[nH]cnc23)c1 [N-((8-chloro-2-(5-fluoro-2-(3-pyridinylmethoxy)phenyl)-3-quinolinyl)methyl)-9H-purin-6-amine] | 178 nM | –
COc1ccc(F)cc1-c1nc2c(Cl)cccc2cc1CNc1ncnc2[nH]cnc12 [N-((8-chloro-2-(5-fluoro-2-methoxyphenyl)-3-quinolinyl)methyl)-9H-purin-6-amine] | 27.4 nM | –
Clc1cccc2cc(CNc3ncnc4[nH]cnc34)c(-c3ccns3)nc12 [N-((8-chloro-2-(5-isothiazolyl)-3-quinolinyl)methyl)-9H-purin-6-amine] | 65.6 nM | –
Clc1cccc2cc(CNc3ncnc4[nH]cnc34)c(Oc3ccccc3)nc12 [N-((8-chloro-2-phenoxy-3-quinolinyl)methyl)-9H-purin-6-amine] | 26.2 nM | –
Clc1cccc2cc(CNc3ncnc4[nH]cnc34)c(-c3ccccc3)nc12 [N-((8-chloro-2-phenyl-3-quinolinyl)methyl)-9H-purin-6-amine] | 219 nM | –
Fc1cccc2cc(CNc3ncnc4nc[nH]c34)c(-c3ccccc3)nc12 [N-((8-fluoro-2-phenyl-3-quinolinyl)methyl)-7H-purin-6-amine] | 240 nM | –
C[C@@H](Nc1ncnc2[nH]cnc12)c1cc2c(Cl)cccc2nc1-c1cccc(F)c1 [N-((R)-1-(5-Chloro-2-(3-fluorophenyl)quinolin-3-yl)ethyl)-9H-purin-6-amine] | 33.6 nM | –
C[C@@H](Nc1ncnc2[nH]cnc12)c1nc2cccc(Cl)c2nc1-c1cccc(F)c1 [N-((R)-1-(5-Chloro-3-(3-fluorophenyl)quinoxalin-2-yl)ethyl)-9H-purin-6-amine] | 13.9 nM | –
C[C@H](Nc1ncnc2[nH]cnc12)c1cc2c(Cl)cccc2nc1-c1cccc(F)c1 [N-((S)-1-(5-Chloro-2-(3-fluorophenyl)quinolin-3-yl)ethyl)-9H-purin-6-amine] | 14.2 nM | –
C[C@H](Nc1ncnc2[nH]cnc12)c1nc2cccc(Cl)c2nc1-c1cccc(F)c1 [N-((S)-1-(5-Chloro-3-(3-fluorophenyl)quinoxalin-2-yl)ethyl)-9H-purin-6-amine] | 8.55 nM | –
C[C@H](Nc1ncnc2[nH]cnc12)c1cc2cccc(Cl)c2nc1-c1cccc(F)c1F [N-((S)-1-(8-Chloro-2-(2,3-difluorophenyl)quinolin-3-yl)ethyl)-9H-purin-6-amine] | 7.59 nM | –
C[C@H](Nc1ncnc2[nH]cnc12)c1cc2cccc(Cl)c2nc1-c1cncs1 [N-((S)-1-(8-Chloro-2-(thiazol-5-yl)quinolin-3-yl)ethyl)-9H-purin-6-amine] | 21.9 nM | –
C[C@H](Nc1ncnc2nc[nH]c12)c1cc2cccc(F)c2nc1-c1cccc(F)c1 [N-((S)-1-(8-fluoro-2-(3-fluorophenyl)quinolin-3-yl)ethyl)-7H-purin-6-amine] | 5.15 nM | –
